Reference: patent US20240099989A1, “AGENT FOR PREVENTING OR IMPROVING PERIPHERAL NEUROPATHY” (KINKI UNIVERSITY, priority 2021, published 2024)

test system: Peripheral Neuropathy in a Mouse Caused by Vincristine; type: in vivo, Balb/c mice; settings: 0.2 mg/kg vincristine + 100 mg/kg orally daily from Day 6 (therapy); from Day 12 onwards
Source text: (§1) Six to seven-week-old female Balb/c mice were used for the tests. All the mice were acclimated for seven days after arrival. Then, the mice were grouped into the following four groups: a control group, a group receiving vincristine, a group receiving xylitol, and a group receiving vincristine and xylitol (a group receiving vincristine+xylitol). Each group consisted of five mice.
On Day 8 of acclimation, the mice in the group receiving vincristine and the group receiving vincristine+xylitol were intraperitoneally administered with vincristine at a dose of 0.2 mg/kg. This day was designated as Day 0 of administration. Thereafter, these mice were intraperitoneally administered with vincristine at a daily dose of 0.2 mg/kg on Day 7 and Day 14.
The mice in the group receiving xylitol and the group receiving vincristine+xylitol were orally administered with xylitol at a dose of 5 mg/kg daily from Day 0.
The mice in the four groups described in (7) of the present example (Example 1) were placed in a cage, and the avoidance response frequency (score) was measured by pressing a filament with a bending force of 0.16 g against the back of the hind paw.
as §1, with “tests as with Example 1.” for “tests.”, “mice. […]” for “mice.”
For the mice in the four groups described in (9) of the present example (Example 2), the avoidance response frequency (score) was measured by pressing a filament with a bending force of 0.16 g against the back of the hind paw. […]
The mice in the four groups described in (7) of the present example (Example 3) were placed in a cage, and the avoidance response frequency (score) was measured by pressing a filament with a bending force of 0.16 g against the back of the hind paw. […]

SMILES | avoidance response score
OC[C@@H](O)[C@H](O)CO [D-threitol] | maintained a score clearly lower than that of the group receiving vincristine
OC[C@H](O)[C@H](O)[C@H](O)[C@@H](O)CO [L-talitol] | maintained a score clearly lower than that of the group receiving vincristine
OC[C@@H](O)[C@H](O)[C@@H](O)CO [xylitol] | maintained a score clearly lower than that of the group receiving vincristine
